Results reported in article PMC5673977, “Transport Deficiency Is the Molecular Basis of Candida albicans Resistance to Antifungal Oligopeptides” (Frontiers in Microbiology, 2017).
Where a SMILES comes first, the peptide text is derived from it. [ ]: non-standard residue; d: D form. The star is where a group is joined. Fumaryl(OMe) = COC(=O)/C=C/C(=O)*; Dap = NC[C@H](N)C(=O)O

What was measured:
Format in all cases: cell-based, Candida albicans
[1] = test system: C. albicans SC 5314 cells; assay: Morphological changes, Calcofluor White staining for chitin; conditions: SC 5314 cells in RPMI-1640, 6 h, 30°C, F11 100 μg mL^-1
Description: Candida albicans cells from the overnight cultures in YPD were harvested, washed with sterile saline and suspended in the RPMI-1640 medium, to the final cell density of 10^5 cfu mL^-1. The compounds tested were added at appropriate concentrations and cultures were incubated for 6 h at 30°C, with shaking. At time intervals, samples of 0.1 mL were collected and cells were stained for chitin. The culture samples were combined with 0.1 mL aliquots of the Calcofluor White solution [0.3 mg mL^-1 in 25 mM phosphate-buffered saline (PBS), pH 7.0] and incubated for 5 min at 25°C. The cells were then harvested, washed four times with PBS, re-suspended in 0.1 mL of the fresh PBS and transferred to a microscopic slide. The stained cells were examined with the Olympus BX 60 F5 fluorescence microscope and photographs were taken using the Studio Lite software (Pixera Corporation, United States).
Since the anticandidal activity of P10 was moderate but independent on medium content and that of F11 was higher but strongly influenced by medium composition, it seemed obvious that the molecular bases of growth inhibitory activity of P10 and F11 were different and that a higher activity of F11 resulted from the presence of FMDP in its structure. To confirm whether the anticandidal activity of F11 was a consequence of GlcN6P synthase inhibition by FMDP, a morphology of SC 5314 cells treated with F11 was compared to that of the untreated cells. The cells were stained with Calcofluor White, the fluorescent brightener that binds specifically to chitin in the fungal cell wall. […] Since it is well known that the primary septum is built of chitin, this finding confirms that the action of F11 results in inhibition of chitin biosynthesis.

[2] = test system: C. albicans isolates NF1-3 and LNF1-3; assay: Initial peptide uptake rate by isolates resistant to F2/F3; conditions: all six isolates NF1-3, LNF1-3; Figure 4
Description: (§1) Yeast cells grown exponentially in the YNB-SG medium were harvested by centrifugation (3000 ×g, 5 min), washed with 50 mM potassium phosphate buffer (pH 5.0 or 6.5), and suspended in the same buffer containing 1% glucose, to a final cell density corresponding to A660 ≅ 1.0. The cell suspension was incubated at 30°C. After 10 min, an oligopeptide solution was added, to give a final concentration of 100 μM. At that moment and at 5 min intervals thereafter, 2 mL samples of the cell suspension were withdrawn, immediately filtered through the Whatman GF/A filters and the filtrates were used to determine the residual peptide concentration. Then, the 1 mL portions of the filtrates were taken and combined with 1.25 mL aliquots of a solution containing 4% Na2B4O7 × 10 H2O and 0.8 mg mL^-1 of 2,4,6-trinitrobenzenesulfonate. The reaction was carried out at 37°C for 30 min. The A420 values were measured and the peptide concentration was read from the appropriate standard curve. Data were plotted as nanomoles of an oligopeptide, taken up by 1 mg (dry weight) of cells versus time. The initial uptake velocities were determined from the slopes of the linear part of the curves, in the 0- to 10-min region.
It is therefore clear that the diminished sensitivity of all six isolates to F2 and F3 was due to the reduced uptake, most likely by permease(s) of the PTR system.

C. albicans opt4Δ = assay: Initial peptide uptake rate; conditions: 50 mM potassium phosphate buffer (pH 5.0 or 6.5) + 1% glucose, 30°C, 100 μM peptide, TNBS A420, slope 0- to 10-min
Description: as §1

C. albicans opt1–opt5Δ = assay: Initial peptide uptake rate; conditions: 50 mM potassium phosphate buffer (pH 5.0 or 6.5) + 1% glucose, 30°C, 100 μM peptide, TNBS A420, slope 0- to 10-min
Description: as §1

C. albicans SC5314 = assay: Initial peptide uptake rate; conditions: SC 5314; cells grown in YNB-SG; 50 mM potassium phosphate buffer (pH 5.0 or 6.5) + 1% glucose, 30°C, 100 μM peptide, residual peptide by TNBS A420, slope 0- to 10-min
Description: as §1

C. albicans ptr2Δ ptr22Δ = assay: Initial peptide uptake rate; conditions: 50 mM potassium phosphate buffer (pH 5.0 or 6.5) + 1% glucose, 30°C, 100 μM peptide, TNBS A420, slope 0- to 10-min
Description: as §1

C. albicans opt2Δ opt3Δ = assay: Initial peptide uptake rate; conditions: 50 mM potassium phosphate buffer (pH 5.0 or 6.5) + 1% glucose, 30°C, 100 μM peptide, TNBS A420, slope 0- to 10-min
Description: as §1

[3] = test system: C. albicans opt1–opt5Δ ptr2Δ ptr22Δ; assay: Initial peptide uptake rate; conditions: 50 mM potassium phosphate buffer (pH 5.0 or 6.5) + 1% glucose, 30°C, 100 μM peptide, TNBS A420, slope 0- to 10-min
Description: as §1

C. albicans opt5Δ = assay: Initial peptide uptake rate; conditions: 50 mM potassium phosphate buffer (pH 5.0 or 6.5) + 1% glucose, 30°C, 100 μM peptide, TNBS A420, slope 0- to 10-min
Description: as §1

C. albicans opt1Δ = assay: Initial peptide uptake rate; conditions: 50 mM potassium phosphate buffer (pH 5.0 or 6.5) + 1% glucose, 30°C, 100 μM peptide, TNBS A420, slope 0- to 10-min
Description: as §1

Compound	Morphological changes (primary septum / chitin) [1]	Initial uptake rate relative to wild type SC5314 cells [2]	Uptake rate ± SD (C. albicans opt4Δ)	Uptake rate ± SD (C. albicans opt1–opt5Δ)	Uptake rate ± SD (C. albicans SC5314)	Uptake rate ± SD (C. albicans ptr2Δ ptr22Δ)	Uptake rate ± SD (C. albicans opt2Δ opt3Δ)	Uptake rate ± SD [3]	Uptake rate ± SD (C. albicans opt5Δ)	Uptake rate ± SD (C. albicans opt1Δ)
COC(=O)/C=C/C(=O)NC[C@H](NC(=O)[C@H](CCSC)NC(=O)[C@@H](NC(=O)[C@@H]1CCCN1C(=O)[C@H](CC(C)C)NC(=O)[C@@H](N)CCCCN)C(C)C)C(=O)O [Peptide F6, Lys-Leu-Pro-Val-Met-FMDP] (H-KLPVM[Dap](Fumaryl(OMe))-OH; N-terminus and C-terminus assumed)	analogous to those observed for F11-treated cells	nearly the same or even somewhat higher	2.99 ± 0.11 nmol min^-1 (mg dry weight)^-1	0.22 ± 0.04 nmol min^-1 (mg dry weight)^-1	3.12 ± 0.20 nmol min^-1 (mg dry weight)^-1	3.00 ± 0.25 nmol min^-1 (mg dry weight)^-1	0.56 ± 0.09 nmol min^-1 (mg dry weight)^-1	0.18 ± 0.03 nmol min^-1 (mg dry weight)^-1	2.03 ± 0.15 nmol min^-1 (mg dry weight)^-1	2.08 ± 0.15 nmol min^-1 (mg dry weight)^-1
COC(=O)/C=C/C(=O)NC[C@H](N)C(=O)N[C@@H](CCCNC(=N)N)C(=O)N[C@@H](CCCCN)C(=O)N[C@@H](CCCCN)C(=O)N[C@@H](Cc1c[nH]c2ccccc12)C(=O)N[C@@H](Cc1ccccc1)C(=O)N[C@@H](Cc1c[nH]c2ccccc12)C(=O)O [Peptide F7, FMDP-Arg-Lys-Lys-Trp-Phe-Trp] (H-[Dap](Fumaryl(OMe))RKKWFW-OH; N-terminus and C-terminus assumed)	analogous to those observed for F11-treated cells		1.85 ± 0.12 nmol min^-1 (mg dry weight)^-1	0.32 ± 0.07 nmol min^-1 (mg dry weight)^-1	2.40 ± 0.16 nmol min^-1 (mg dry weight)^-1	2.22 ± 0.16 nmol min^-1 (mg dry weight)^-1	0.46 ± 0.08 nmol min^-1 (mg dry weight)^-1	0.23 ± 0.02 nmol min^-1 (mg dry weight)^-1	1.44 ± 0.10 nmol min^-1 (mg dry weight)^-1	1.70 ± 0.12 nmol min^-1 (mg dry weight)^-1
COC(=O)/C=C/C(=O)NC[C@H](N)C(=O)N[C@@H](CCCCN)C(=O)N[C@@H](CCCCN)C(=O)N[C@H](C(=O)N[C@H](C(=O)N[C@@H](Cc1ccccc1)C(=O)N[C@@H](Cc1c[nH]c2ccccc12)C(=O)N[C@H](C(=O)N[C@@H](CCCCN)C(=O)N[C@@H](Cc1ccccc1)C(=O)N[C@@H](CCCCN)C(=O)O)C(C)C)C(C)C)C(C)C [Peptide F11, FMDP-Lys-Lys-Val-Val-Phe-Trp-Val-Lys-Phe-Lys] (H-[Dap](Fumaryl(OMe))KKVVFWVKFK-OH; N-terminus assumed)	defective in formation of a primary septum		1.77 ± 0.18 nmol min^-1 (mg dry weight)^-1		2.25 ± 0.15 nmol min^-1 (mg dry weight)^-1	2.28 ± 0.15 nmol min^-1 (mg dry weight)^-1	0.22 ± 0.03 nmol min^-1 (mg dry weight)^-1	0.18 ± 0.02 nmol min^-1 (mg dry weight)^-1	1.92 ± 0.18 nmol min^-1 (mg dry weight)^-1	1.64 ± 0.11 nmol min^-1 (mg dry weight)^-1
